Source: paper PMC6834573, “Novel insights into transketolase activation by cofactor binding identifies two native species subpopulations” (Scientific Reports, 2019)
Each block holds one molecule with its values, some of them ahead of it.

Columns and labels:
[1] = target: T1, wild-type E. coli transketolase (TK; TKhigh / TKlow subpopulations) (Escherichia coli, UniProt P27302); assay: intrinsic fluorescence quenching (ex […] nm, em […] nm), double-Hill fit; type: binding; conditions: second site, 9 mM Mg2+, 50 mM Tris-HCl pH 7.0, 22 °C, 0.05 mg/mL TK, low-affinity subpopulation TKlow (chemically unmodified enzyme)
T1 construct: gene tktA; full length, N-terminal His6-tag kept, from plasmid pQR791 in E. coli XL10-gold; apo form after dialysis; homodimer; about one third oxidised (TKhigh), rest unmodified (TKlow)

[2] = target: T1, wild-type E. coli transketolase (TK; TKhigh / TKlow subpopulations); assay: as above; type: binding; conditions: read-out: Kd(high)
[3] = target: the molecule itself; assay: AUC; sedimentation velocity, apoTK at 0.2 mg/mL without Mg2+ and TPP, 20 °C, pH 7.0, 40,000 rpm, c(s) analysis with SEDFIT; dimer to monomers

T1 sequence (P27302 whole entry): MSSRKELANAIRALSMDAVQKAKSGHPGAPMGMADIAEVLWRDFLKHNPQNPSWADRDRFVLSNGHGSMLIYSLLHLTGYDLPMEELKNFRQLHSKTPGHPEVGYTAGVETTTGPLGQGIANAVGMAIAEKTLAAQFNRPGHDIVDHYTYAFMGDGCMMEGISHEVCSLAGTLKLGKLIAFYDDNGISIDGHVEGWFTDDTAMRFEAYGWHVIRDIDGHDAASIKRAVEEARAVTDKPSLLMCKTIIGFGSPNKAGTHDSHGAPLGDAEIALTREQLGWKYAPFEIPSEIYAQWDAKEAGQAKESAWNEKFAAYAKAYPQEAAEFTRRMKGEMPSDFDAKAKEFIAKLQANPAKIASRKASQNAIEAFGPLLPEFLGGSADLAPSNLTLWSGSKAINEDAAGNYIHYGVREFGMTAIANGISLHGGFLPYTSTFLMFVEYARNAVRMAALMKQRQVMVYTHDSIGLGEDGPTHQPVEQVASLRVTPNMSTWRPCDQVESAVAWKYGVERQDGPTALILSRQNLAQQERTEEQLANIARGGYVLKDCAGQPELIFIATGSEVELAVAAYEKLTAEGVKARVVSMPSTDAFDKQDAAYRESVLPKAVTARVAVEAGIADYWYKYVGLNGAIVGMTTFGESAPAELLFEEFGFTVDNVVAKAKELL

Kd(low) [1]: 276 ± 25 µM | Kd [2]: 2.29 ± 0.23 µM
Molecule: Cc1ncc(C[n+]2csc(CCOP(=O)(O)OP(=O)(O)O)c2C)c(N)n1 [TPP, thiamine pyrophosphate]

B1: Wild-type E. coli transketolase (apo-transketolase) (enzyme)
chain: SSRKELANAIRALSMDAVQKAKSGHPGAPMGMADIAEVLWRDFLKHNPQNPSWADRDRFVLSNGHGSMLIYSLLHLTGYDLPMEELKNFRQLHSKTPGHPEVGYTAGVETTTGPLGQGIANAVGMAIAEKTLAAQFNRPGHDIVDHYTYAFMGDGCMMEGISHEVCSLAGTLKLGKLIAFYDDNGISIDGHVEGWFTDDTAMRFEAYGWHVIRDIDGHDAASIKRAVEEARAVTDKPSLLMCKTIIGFGSPNKAGTHDSHGAPLGDAEIALTREQLGWKYAPFEIPSEIYAQWDAKEAGQAKESAWNEKFAAYAKAYPQEAAEFTRRMKGEMPSDFDAKAKEFIAKLQANPAKIASRKASQNAIEAFGPLLPEFLGGSADLAPSNLTLWSGSKAINEDAAGNYIHYGVREFGMTAIANGISLHGGFLPYTSTFLMFVEYARNAVRMAALMKQRQVMVYTHDSIGLGEDGPTHQPVEQVASLRVTPNMSTWRPCDQVESAVAWKYGVERQDGPTALILSRQNLAQQERTEEQLANIARGGYVLKDCAGQPELIFIATGSEVELAVAAYEKLTAEGVKARVVSMPSTDAFDKQDAAYRESVLPKAVTARVAVEAGIADYWYKYVGLNGAIVGMTTFGESAPAELLFEEFGFTVDNVVAKAKELL
notes: Transketolase (EC 2.2.1.1) of E. coli, wild type; monomeric molecular weight 73035.5 g/mol as printed; The preparation is a mixture; By mass spectrometry about 31% carries one or two extra oxygen atoms (TKhigh, most likely Cys157 sulfenic or sulfinic acid) and the rest is unmodified (TKlow); also called TK; apoTK; source: E. coli XL10-gold, from the plasmid pQR791, purified, ultrafiltrated and …
stoichiometry N [3]: 2
